Measurements published in patent US8785614B2, “Aberrantly methylated genes in pancreatic cancer” (The Johns Hopkins University, priority 2003, dated 2014).
Like-named read-outs stand apart in the source and are kept apart here.

Experiments:
[1] = test system: Hs766T pancreatic cancer cell line
Procedure: Mock-treated cells were cultured with the equivalent volume of PBS alone.
(§1) Total RNA was isolated from cultured cells using TRIZOL reagent (invitrogen, Carlsbad, Calif.) and purified using RNeasy Mini Kit (Qiagen, Valencia, Calif.). First- and second-stranded cDNA was synthesized from 10 μg of total RNA using 17-dT) primer (Genset Corp., La Jolla, Calif.) and Superscript Choice system (Invitrogen). Labeled cRNA was synthesized from the purified cDNA by in vitro transcription reaction using the BioArray High Yield RNA Transcript Labeling Kit (Enzo Diagnostics, Inc., Farmingdale, N.Y.) at 37° C. for 6 h. The cRNA was fragmented at 94° C. for 35 min. in a fragmentation buffer [40 mM Tris-acetate @ pH 8.1, 100 mM potassium acestate, and 30 mM magnesium acetate]. The fragmented cRNA was then hybridized to the Human Genome U133A chips (Affymetrix, Santa Clara, Calif.) with 18462 unique gene/EST transcripts at 45° C. for 16 h. The washing and staining procedure was performed in the Affymetrix Fluidics Station according to the manufacturer's instructions. The probes were then scanned using a laser scanner, and signal intensity for each transcript (background-subtracted and adjusted for noise) was calculated using Microarray Suite Software 5.0 (Affymetrix).
(§2) Fold change analysis of signal intensities obtained from oligonucleotide microarrays between the two treatment groups was performed using Data Mining software (Afrymetrix).
The global changes in gene expression proxies induced by 5Aza-dC in four pancreatic cancer cell lines (AsPCl, Hs766T, MiaPaCa2, and Panel) were determined using the Afrymetrix U133 oligonucleotide microarrays with 18462 probes sets (transcripts) covering over 13000 full-length sequences of known genes.

[2] = test system: nonneoplastic ductal cell line HPDE
Procedure: as §1, §2

## Nc1ncn([C@H]2C[C@H](O)[C@@H](CO)O2)c(=O)n1 [5Aza-dC, 5 aza 2′ deoxycytidine]
[1]; ANGPT2, Hs766T
  Fold-change after 5Aza-dC treatment: −0.44 fold
[1]; BARD1, Hs766T
  Fold-change after 5Aza-dC treatment: 5.21 fold
[1]; BNIP3, Hs766T
  Fold-change after 5Aza-dC treatment: −1.75 fold
[1]; BST2, Hs766T
  Fold-change after 5Aza-dC treatment: 1.36 fold
[1]; CACNA1G, Hs766T
  Fold-change after 5Aza-dC treatment: 0.5 fold
[1]; CCNE2, Hs766T
  Fold-change after 5Aza-dC treatment: 5.28 fold
[1]; CDH3, Hs766T
  Fold-change after 5Aza-dC treatment: 0.89 fold
[1]; CDKN1A (p21), Hs766T
  Fold-change after 5Aza-dC treatment: 1.04 fold
[1]; CDKN1C, Hs766T
  Fold-change after 5Aza-dC treatment: 5.42 fold
[1]; CLDN5, Hs766T
  Fold-change after 5Aza-dC treatment: 1.21 fold
[1]; CSF1, Hs766T
  Fold-change after 5Aza-dC treatment: 5.75 fold
[1]; DR3, Hs766T
  Fold-change after 5Aza-dC treatment: −1.46 fold
[1]; FOXE1, Hs766T
  Fold-change after 5Aza-dC treatment: 5.63 fold
[1]; GAGE1, Hs766T
  Fold-change after 5Aza-dC treatment: 0.48 fold
[1]; GAGE3, Hs766T
  Fold-change after 5Aza-dC treatment: −2.57 fold
[1]; GAGE4, Hs766T
  Fold-change after 5Aza-dC treatment: −1.1 fold
[1]; GAGE6, Hs766T
  Fold-change after 5Aza-dC treatment: 1.09 fold
[1]; GAGE7, Hs766T
  Fold-change after 5Aza-dC treatment: −1.12 fold
[1]; HOXA1, Hs766T
  Fold-change after 5Aza-dC treatment: −1.61 fold
[1]; Hs766T
  transcripts with >5-fold increase, share of the 18462 transcripts analyzed: 0.9%
[1]; Hs766T, vs mock-treated
  transcripts with substantial increase (>5-fold) in signal intensities: 167 transcripts
[1]; IGF2, Hs766T
  Fold-change after 5Aza-dC treatment: −0.41 fold
[1]; IL1R1, Hs766T
  Fold-change after 5Aza-dC treatment: −2.59 fold
[1]; ISG20, Hs766T
  Fold-change after 5Aza-dC treatment: 1.02 fold
[1]; JPH3, Hs766T
  Fold-change after 5Aza-dC treatment: 5.27 fold
[1]; KLK10, Hs766T
  Fold-change after 5Aza-dC treatment: 1.16 fold
[1]; LDOC1, Hs766T
  Fold-change after 5Aza-dC treatment: −1.86 fold
[1]; LHX1, Hs766T
  Fold-change after 5Aza-dC treatment: 1.92 fold
[1]; MAGE1, Hs766T
  Fold-change after 5Aza-dC treatment: 4.45 fold
[1]; MATN1, Hs766T
  Fold-change after 5Aza-dC treatment: 6.83 fold
[1]; NEFH, Hs766T
  Fold-change after 5Aza-dC treatment: −1.24 fold
[1]; NPTX2, Hs766T
  Fold-change after 5Aza-dC treatment: −2.6 fold
[1]; PAX6, Hs766T
  Fold-change after 5Aza-dC treatment: 1.36 fold
[1]; PDYN, Hs766T
  Fold-change after 5Aza-dC treatment: 6.38 fold
[1]; PLAT, Hs766T
  Fold-change after 5Aza-dC treatment: −1.73 fold
[1]; PLEK2, Hs766T
  Fold-change after 5Aza-dC treatment: 1.12 fold
[1]; SARP2, Hs766T
  Fold-change after 5Aza-dC treatment: 1.35 fold
[1]; SMARCA1, Hs766T
  Fold-change after 5Aza-dC treatment: −0.79 fold
[1]; ST14, Hs766T
  Fold-change after 5Aza-dC treatment: −4.72 fold
[1]; TIMP3, Hs766T
  Fold-change after 5Aza-dC treatment: −3.67 fold
[1]; TJP2, Hs766T
  Fold-change after 5Aza-dC treatment: −1.56 fold
[1]; TNF, Hs766T
  Fold-change after 5Aza-dC treatment: −4.9 fold
[1]; UCHL1, Hs766T
  Fold-change after 5Aza-dC treatment: 1.45 fold
[1]; WNT7A, Hs766T
  Fold-change after 5Aza-dC treatment: 9.03 fold
[1]; XAGE-1, Hs766T
  Fold-change after 5Aza-dC treatment: −0.5 fold
[1]; granulocytemacrophage colony-stimulating factor (M11734), Hs766T
  Fold-change after 5Aza-dC treatment: 5.53 fold
[1]; interferon, alpha-inducible protein (NM_022873), Hs766T
  Fold-change after 5Aza-dC treatment: −4.46 fold
[1]; p53-induced protein (PIGII), Hs766T
  Fold-change after 5Aza-dC treatment: 1.04 fold
[1]; reprimo, Hs766T
  Fold-change after 5Aza-dC treatment: 6.65 fold
[1]; stratifin (14-3-3 sigma), Hs766T
  Fold-change after 5Aza-dC treatment: −1.64 fold
[1]; stromal antigen 3 (STAG5), Hs766T
  Fold-change after 5Aza-dC treatment: 1.01 fold
[1]; testin, Hs766T
  Fold-change after 5Aza-dC treatment: 1.6 fold
[2]; ANGPT2, HPDE
  Fold-change after 5Aza-dC treatment: −0.4 fold
[2]; BARD1, HPDE
  Fold-change after 5Aza-dC treatment: 2.23 fold
[2]; BNIP3, HPDE
  Fold-change after 5Aza-dC treatment: 1.23 fold
[2]; BST2, HPDE
  Fold-change after 5Aza-dC treatment: −1.06 fold
[2]; CACNA1G, HPDE
  Fold-change after 5Aza-dC treatment: 0.39 fold
[2]; CCNE2, HPDE
  Fold-change after 5Aza-dC treatment: 1.5 fold
[2]; CDH3, HPDE
  Fold-change after 5Aza-dC treatment: −1.08 fold
[2]; CDKN1A (p21), HPDE
  Fold-change after 5Aza-dC treatment: 1.33 fold
[2]; CDKN1C, HPDE
  Fold-change after 5Aza-dC treatment: 1.07 fold
[2]; CLDN5, HPDE
  Fold-change after 5Aza-dC treatment: 2.45 fold
[2]; CSF1, HPDE
  Fold-change after 5Aza-dC treatment: −1.03 fold
[2]; DR3, HPDE
  Fold-change after 5Aza-dC treatment: 1.01 fold
[2]; FOXE1, HPDE
  Fold-change after 5Aza-dC treatment: −1.1 fold
[2]; GAGE1, HPDE
  Fold-change after 5Aza-dC treatment: −0.55 fold
[2]; GAGE3, HPDE
  Fold-change after 5Aza-dC treatment: 1.33 fold
[2]; GAGE4, HPDE
  Fold-change after 5Aza-dC treatment: 3.33 fold
[2]; GAGE6, HPDE
  Fold-change after 5Aza-dC treatment: 2.41 fold
[2]; GAGE7, HPDE
  Fold-change after 5Aza-dC treatment: 3.36 fold
[2]; HOXA1, HPDE
  Fold-change after 5Aza-dC treatment: −1.23 fold
[2]; HPDE
  transcripts induced, share of transcripts analyzed: 0.5%
  transcripts whose expression was induced after drug treatment: 101 transcripts
[2]; IGF2, HPDE
  Fold-change after 5Aza-dC treatment: −0.34 fold
[2]; IL1R1, HPDE
  Fold-change after 5Aza-dC treatment: −1.81 fold
[2]; ISG20, HPDE
  Fold-change after 5Aza-dC treatment: 0.89 fold
[2]; JPH3, HPDE
  Fold-change after 5Aza-dC treatment: 2.14 fold
[2]; KLK10, HPDE
  Fold-change after 5Aza-dC treatment: 3.75 fold
[2]; LDOC1, HPDE
  Fold-change after 5Aza-dC treatment: −1.12 fold
[2]; LHX1, HPDE
  Fold-change after 5Aza-dC treatment: 1.01 fold
[2]; MAGE1, HPDE
  Fold-change after 5Aza-dC treatment: 1.7 fold
[2]; MATN1, HPDE
  Fold-change after 5Aza-dC treatment: −125 fold
[2]; NEFH, HPDE
  Fold-change after 5Aza-dC treatment: −1.08 fold
[2]; NPTX2, HPDE
  Fold-change after 5Aza-dC treatment: 2.42 fold
[2]; PAX6, HPDE
  Fold-change after 5Aza-dC treatment: 2.57 fold
[2]; PDYN, HPDE
  Fold-change after 5Aza-dC treatment: −1.04 fold
[2]; PLAT, HPDE
  Fold-change after 5Aza-dC treatment: 4.9 fold
[2]; PLEK2, HPDE
  Fold-change after 5Aza-dC treatment: 1.2 fold
[2]; SARP2, HPDE
  Fold-change after 5Aza-dC treatment: 1.11 fold
[2]; SMARCA1, HPDE
  Fold-change after 5Aza-dC treatment: 3.54 fold
[2]; ST14, HPDE
  Fold-change after 5Aza-dC treatment: −1.05 fold
[2]; TIMP3, HPDE
  Fold-change after 5Aza-dC treatment: 1.32 fold
[2]; TJP2, HPDE
  Fold-change after 5Aza-dC treatment: 1.41 fold
[2]; TNF, HPDE
  Fold-change after 5Aza-dC treatment: −1.2 fold
[2]; UCHL1, HPDE
  Fold-change after 5Aza-dC treatment: 1.95 fold
[2]; WNT7A, HPDE
  Fold-change after 5Aza-dC treatment: −1.23 fold
[2]; XAGE-1, HPDE
  Fold-change after 5Aza-dC treatment: −0.43 fold
[2]; granulocytemacrophage colony-stimulating factor (M11734), HPDE
  Fold-change after 5Aza-dC treatment: −0.94 fold
[2]; interferon, alpha-inducible protein (NM_022873), HPDE
  Fold-change after 5Aza-dC treatment: 1.33 fold
[2]; p53-induced protein (PIGII), HPDE
  Fold-change after 5Aza-dC treatment: −1.58 fold
[2]; reprimo, HPDE
  Fold-change after 5Aza-dC treatment: 1.06 fold
[2]; stratifin (14-3-3 sigma), HPDE
  Fold-change after 5Aza-dC treatment: −1.46 fold
[2]; stromal antigen 3 (STAG5), HPDE
  Fold-change after 5Aza-dC treatment: 4.8 fold
[2]; testin, HPDE
  Fold-change after 5Aza-dC treatment: 1.09 fold
